Experimental data reported in patent publication US20090220528A1, “Stimulation of Toll-Like Receptors on T Cells” (THE TRUSTEES OF THE UNIVERISTY OF PENNSYLVANIA CNETER FOR …, priority 2005, published 2009).

What was measured:
Assay type in all cases: cell-based, mouse
activated CD4+ T cells [1] = assay: Absolute live CD4+ T cell counts by FACS; details: up to 72 hours following activation with plate-bound anti-CD3 plus anti-CD28; relative to untreated cultures (FIG. 3C)
Method: (§1) Following activation, purified CD4^+ T cells were washed twice in PBS and replated in culture medium at 10^6/ml. Cultures were left untreated or treated with either TLR ligands and/or inhibitors for indicated times and concentrations. Following incubation, CD4^+ T cells were washed twice in PBS/2% FBS and stained with CD4-allophycocyanin monoclonal antibody and 7-aminoactinomycin D (7-AAD; BD PharMingen) or annexin (BD PharMingen) and survival was assessed by exclusion of either of these two stains. For absolute live cell counts 50,000 CD45.1^+ splenocytes labeled with anti-CD45.1-PE monoclonal antibody (A20; BD PharMingen) were also added to stained CD4^+ T cell sample FACS tubes just before FACS analysis. Live CD4^+ T cell counts were calculated by taking the ratio of the number of CD4^+CD45.1^−7-ADD^− events collected to the number CD45.1^+ events collected and multiplying by 50,000. Proliferation was measured by CFSE dye dilution as previously described (Wells et al., 1997 J. Clin. Invest. 100:3173).
Since percentage survival measurements may not be reflective of viable CD4^+ T cell numbers in vitro, absolute live cell number counts were quantified for periods up to 72 hours following activation of FACS sorted CD4^+ T cells with plate-bound anti-CD3 plus anti-CD28 monoclonal antibodies (FIGS. 3C).

activated CD4+ T cells [2] = assay: NF-κB and MAP kinase signaling analysis (phospho-specific Western blot); details: anti-CD3/anti-CD28 activated BALB/c CD4+ T cells (FIG. 2)
Method: BALB/c CD44^lowCD25^−CD4^+ T cells were activated with plate-bound 1.0 μg/ml anti-CD3 and 1.0 μg/ml anti-CD28 monoclonal antibodies for 16 hours, washed, and rested for 8 hours at 37° C. Activated (1.5×10^6) CD4^+ T cells were then treated with TLR ligands for the indicated times, lysed in 1×SDS loading buffer (Bio-Rad Life Sciences), resolved on a 12% bis-Tris SDS-PAGE gel (Life Technologies), transferred to nitrocellulose filters (Life Technologies), and either probed with rabbit anti-mouse phospho-specific Abs for p-IκBα, p-p38, p-extracellular signal-regulated kinase (ERK) 1/2, or p-C-Jun N-terminal kinase (JNK)/stress-activated protein kinase (SAPK). To assess total amounts of signaling molecules, filters were also probed with either rabbit anti-mouse IκBα, p-38, ERK-1/2, or JNK/SAPK antibodies. Detection was conducted with HRP-conjugated goat ant-rabbit antibodies, ECL reagent (Amersham), and X-OMAT Film (Kodak, Rochester, N.Y.). All antibodies were purchased from Cell Signal Technologies (Beverly, Mass.).
TLR ligands induce the activation of nuclear factor NF-κB and MAP kinases in APCs (Akira, 2003, J. Biol. Chem. 278:38105; Martin et al., 2002 Biochem. Biophys. Acta. 1592:265). The next set of experiments were designed to assess whether TLR ligands could also induce NF-κB and MAP kinase activity in activated CD4^+ T cells (FIG. 2). […]

activated CD4+ T cells [3] = assay: Analysis of antiapoptotic molecules (Bcl-2 FACS; Bcl-xL, Bcl-3 Western blot)
Method: For Bcl-2 evaluation, CD4^+ T cells were permeabilized with 0.1% saponin/0.2% FBS/PBS and stained with anti-Bcl-2 PE monoclonal antibody (3F-11; BD PharMingen) or an isotype hamster IgG-PE control (A19-3; BD PharMingen) and staining was analyzed by FACS. Bcl-xL, Bcl-3, and β-actin were analyzed by Western blotting using rabbit anti-mouse Abs specific for BCl-xL (BD Transduction Laboratories, Lexington, Ky.), Bcl-3 (Santa Cruz Biotechnology, Santa Cruz, Calif.), and β-actin (Accurate Labs, Westbury, N.Y.).
Members of the Bcl family are mediators of activated CD4^+ T cell survival. […] Therefore, levels of each of these molecules were measured following TLR ligand treatment of activated CD4^+ T cells (FIGS. 4C and 4D). Bcl-2 protein levels were not changed by TLR ligand treatment relative to untreated activated CD4^+ T cell controls. Additionally, Bcl-3 protein levels were also left unaffected despite the fact that all of the TLR ligands used in the experiment are also used as adjuvants (Mitchell et al., 2001, Nat. Immunol. 2:397). […] Thus, directly mediated activated CD4^+ T cell survival is associated with specific BCl-xL up-regulation.

[4] = test system: activated DO11.10 CD4+ T cells; assay: Proliferation by CFSE dye dilution; details: 72 hours following activation; relative to untreated activated controls (FIG. 3D)
Method: as §1, with “For absolute live cell counts 50,000 CD45.1^+ splenocytes labeled with anti-CD45.1-PE monoclonal antibody (A20; BD PharMingen) were also added to stained CD4^+ T cell sample FACS tubes just before FACS analysis.” left out
Without wishing to be bound by any particular theory, the increases in live cells numbers observed could be explained by TLR ligand-mediated increases in CD4^+ T cell proliferation. […] To address this issue, CFSE-labeled DO11.10 CD4^+ T cells were first activated by pOVA-pulsed APCs for 16 hours, purified by magnetic beads, and then treated with TLR ligands and assessed for proliferation 72 hours following activation (FIG. 3D).

Substance: poly(I:C)
- live CD4+ T cell numbers (activated CD4+ T cells [1]): concordant increases
- NF-κB activity (phosphorylation of IκBα) (activated CD4+ T cells [2]): induce rapid NF-κB activity
- phosphorylation of p38 MAPK, ERK 1/2 and JNK/SAPK (activated CD4+ T cells [2]): able to effect phosphorylation
- Bcl-xL protein (activated CD4+ T cells [3]; over LPS-treated and untreated activated CD4+ T cells): significant increases
- Bcl-3 protein levels (activated CD4+ T cells [3]; relative to untreated activated CD4+ T cell controls): not observed
- proliferation of activated CD4+ T cells [4]: did not enhance proliferation
